Measured values taken from patent US9040545B2, “Heterocyclyl pyrazolopyrimidine analogues as selective JAK inhibitors” (Cellzome Limited, priority 2010, dated 2015).

These compounds were tested against T1, JAK3 (Homo sapiens, UniProt P52333) (assay: Kinobeads assay, JAK3). Conditions: mixed Molt4/Ramos lysate, read-out: Inhibition values (IC50) JAK3.
T1 construct: endogenous in cells; host or cells: mixed Molt4/Ramos lysate (1:2)
T1 sequence (P52333 1-1124): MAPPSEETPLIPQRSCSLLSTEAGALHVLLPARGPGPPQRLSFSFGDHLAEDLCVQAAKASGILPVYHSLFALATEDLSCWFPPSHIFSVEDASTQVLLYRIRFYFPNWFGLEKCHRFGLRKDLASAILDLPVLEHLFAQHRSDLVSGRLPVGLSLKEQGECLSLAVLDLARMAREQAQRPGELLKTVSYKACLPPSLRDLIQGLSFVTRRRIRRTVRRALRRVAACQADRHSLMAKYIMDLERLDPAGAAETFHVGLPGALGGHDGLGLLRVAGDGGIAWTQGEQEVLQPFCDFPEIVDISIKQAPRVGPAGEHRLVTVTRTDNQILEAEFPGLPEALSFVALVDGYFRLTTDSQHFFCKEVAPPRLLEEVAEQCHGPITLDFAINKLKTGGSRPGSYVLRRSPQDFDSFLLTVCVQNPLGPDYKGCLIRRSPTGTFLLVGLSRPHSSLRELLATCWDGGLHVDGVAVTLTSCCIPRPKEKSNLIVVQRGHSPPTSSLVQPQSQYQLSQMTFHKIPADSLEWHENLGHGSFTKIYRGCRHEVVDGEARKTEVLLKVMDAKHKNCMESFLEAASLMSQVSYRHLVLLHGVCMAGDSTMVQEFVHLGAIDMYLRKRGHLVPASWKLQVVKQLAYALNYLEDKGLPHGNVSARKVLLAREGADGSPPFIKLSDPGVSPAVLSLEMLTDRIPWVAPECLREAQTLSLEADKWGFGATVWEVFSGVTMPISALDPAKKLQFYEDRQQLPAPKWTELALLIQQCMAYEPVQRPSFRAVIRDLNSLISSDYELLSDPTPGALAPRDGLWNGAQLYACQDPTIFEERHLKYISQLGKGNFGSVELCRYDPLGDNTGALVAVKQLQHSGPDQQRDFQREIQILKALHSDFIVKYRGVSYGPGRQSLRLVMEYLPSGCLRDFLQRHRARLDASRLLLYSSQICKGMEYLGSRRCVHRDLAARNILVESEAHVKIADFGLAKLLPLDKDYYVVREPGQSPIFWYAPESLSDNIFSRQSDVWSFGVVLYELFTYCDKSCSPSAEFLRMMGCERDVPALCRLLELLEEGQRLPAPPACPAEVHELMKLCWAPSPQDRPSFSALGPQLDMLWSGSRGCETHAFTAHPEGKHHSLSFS
Type: binding
Procedure, shortened: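 Competition binding in mixed Molt4/Ramos cell lysate (1:2, 10 mg/mL protein) with Kinobeads carrying immobilized aminopyrido-pyrimidine ligand, 3 h in cold room; 9-step 1:3 compound dilution series from 5 mM DMSO stock. Bead-bound JAK2/JAK3 eluted and quantified by antibody dot blot with infrared detection; IC50 from dose-response curves.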

Row | Compound | IC50
1 | N#CCCn1cc(Nc2ncc3cnn(Cc4cc(F)cc(N5CCOCC5=O)c4)c3n2)cn1 [Example 107, 3-(4-((1-(3-fluoro-5-(3-oxomorpholino)benzyl)-1H-pyrazolo[3,4-d]pyrimidin-6-yl)amino)-1H-pyrazol-1-yl)propanenitrile] | < 100 nM
2 | Cn1cc(Nc2ncc3cnn(Cc4cccc(N5CCC(=O)CC5)c4)c3n2)cn1 [Example 108, 1-(3-((6-((1-methyl-1H-pyrazol-4-yl)amino)-1H-pyrazolo[3,4-d]pyrimidin-1-yl)methyl)phenyl)piperidin-4-one] | < 100 nM
3 | O=C(Cn1cc(Nc2ncc3cnn(Cc4cc(F)cc(N5CCOCC5=O)c4)c3n2)cn1)N1CCNCC1 [Example 109, 4-(3-fluoro-5-((6-((1-(2-oxo-2-(piperazin-1-yl)ethyl)-1H-pyrazol-4-yl)amino)-1H-pyrazolo[3,4-d]pyrimidin-1-yl)methyl)phenyl)morpholin-3-one] | < 100 nM
4 | Cn1cc(Nc2ncc3cnn(Cc4c(F)c(F)cc(C(=O)N5CCOCC5)c4F)c3n2)cn1 [Example 110, morpholino(2,4,5-trifluoro-3-((6-((1-methyl-1H-pyrazol-4-yl)amino)-1H-pyrazolo[3,4-d]pyrimidin-1-yl)methyl)phenyl)methanone] | < 100 nM
5 | O=C(c1cc(F)c(F)c(Cn2ncc3cnc(Nc4cnn(CCO)c4)nc32)c1F)N1CCOCC1 [Example 111, morpholino(2,4,5-trifluoro-3-((6-((1-(2-hydroxyethyl)-1H-pyrazol-4-yl)amino)-1H-pyrazolo[3,4-d]pyrimidin-1-yl)methyl)phenyl)methanone] | < 100 nM
6 | C[C@H]1COCCN1c1cccc(Cn2ncc3cnc(Nc4cnn(C)c4)nc32)c1 [Example 112, (S)-N-(1-methyl-1H-pyrazol-4-yl)-1-(3-(3-methylmorpholino)benzyl)-1H-pyrazolo[3,4-d]pyrimidin-6-amine] | < 100 nM
7 | C[C@@H]1COCCN1c1cccc(Cn2ncc3cnc(Nc4cnn(C)c4)nc32)c1 [Example 113, (R)-N-(1-methyl-1H-pyrazol-4-yl)-1-(3-(3-methylmorpholino)benzyl)-1H-pyrazolo[3,4-d]pyrimidin-6-amine] | < 100 nM
8 | Cn1cc(Nc2ncc3cnn(Cc4cccc(NC5COC5)c4)c3n2)cn1 [Example 114, N-(1-methyl-1H-pyrazol-4-yl)-1-(3-(oxetan-3-ylamino)benzyl)-1H-pyrazolo[3,4-d]pyrimidin-6-amine] | < 100 nM
9 | Cn1cc(Nc2ncc3cnn(Cc4cccc(-c5cnn(C)c5)c4)c3n2)cn1 [Example 115, N-(1-methyl-1H-pyrazol-4-yl)-1-(3-(1-methyl-1H-pyrazol-4-yl)benzyl)-1H-pyrazolo[3,4-d]pyrimidin-6-amine] | < 100 nM
10 | CCn1cc(-c2cccc(Cn3ncc4cnc(Nc5cnn(C)c5)nc43)c2)cn1 [Example 116, 1-(3-(1-ethyl-1H-pyrazol-4-yl)benzyl)-N-(1-methyl-1H-pyrazol-4-yl)-1H-pyrazolo[3,4-d]pyrimidin-6-amine] | < 100 nM
11 | CC(C)n1cc(-c2cccc(Cn3ncc4cnc(Nc5cnn(C)c5)nc43)c2)cn1 [Example 117, 1-(3-(1-isopropyl-1H-pyrazol-4-yl)benzyl)-N-(1-methyl-1H-pyrazol-4-yl)-1H-pyrazolo[3,4-d]pyrimidin-6-amine] | 100 to 1000 nM
12 | Cn1cc(Nc2ncc3cnn(Cc4cccc(-c5cn[nH]c5)c4)c3n2)cn1 [Example 118, 1-(3-(1H-pyrazol-4-yl)benzyl)-N-(1-methyl-1H-pyrazol-4-yl)-1H-pyrazolo[3,4-d]pyrimidin-6-amine] | < 100 nM
13 | CCCn1cc(-c2cccc(Cn3ncc4cnc(Nc5cnn(C)c5)nc43)c2)cn1 [Example 119, N-(1-methyl-1H-pyrazol-4-yl)-1-(3-(1-propyl-1H-pyrazol-4-yl)benzyl)-1H-pyrazolo[3,4-d]pyrimidin-6-amine] | < 100 nM
14 | Cn1cc(Nc2ncc3cnn(Cc4cccc(-c5cnn(CC(N)=O)c5)c4)c3n2)cn1 [Example 120, 2-(4-(3-((6-((1-methyl-1H-pyrazol-4-yl)amino)-1H-pyrazolo[3,4-d]pyrimidin-1-yl)methyl)phenyl)-1H-pyrazol-1-yl)acetamide] | < 100 nM
15 | Cn1cc(Nc2ncc3cnn(Cc4cccc(-c5cnn(CCO)c5)c4)c3n2)cn1 [Example 121, 2-(4-(3-((6-((1-methyl-1H-pyrazol-4-yl)amino)-1H-pyrazolo[3,4-d]pyrimidin-1-yl)methyl)phenyl)-1H-pyrazol-1-yl)ethanol] | < 100 nM
16 | Cn1cc(-c2cccc(Cn3ncc4cnc(Nc5cnn(CCO)c5)nc43)c2)cn1 [Example 122, 2-(4-((1-(3-(1-methyl-1H-pyrazol-4-yl)benzyl)-1H-pyrazolo[3,4-d]pyrimidin-6-yl)amino)-1H-pyrazol-1-yl)ethanol] | < 100 nM
17 | Cn1cc(Nc2ncc3cnn(Cc4cccc(-c5cnn(C)c5)c4F)c3n2)cn1 [Example 123, 1-(2-fluoro-3-(1-methyl-1H-pyrazol-4-yl)benzyl)-N-(1-methyl-1H-pyrazol-4-yl)-1H-pyrazolo[3,4-d]pyrimidin-6-amine] | < 100 nM
18 | Cn1cc(-c2cccc(Cn3ncc4cnc(Nc5cnn(CCO)c5)nc43)c2F)cn1 [Example 124, 2-(4-((1-(2-fluoro-3-(1-methyl-1H-pyrazol-4-yl)benzyl)-1H-pyrazolo[3,4-d]pyrimidin-6-yl)amino)-1H-pyrazol-1-yl)ethanol] | < 100 nM
19 | Cn1cc(Nc2ncc3cnn(Cc4cc(F)cc(-c5cnn(C)c5)c4)c3n2)cn1 [Example 125, 1-(3-fluoro-5-(1-methyl-1H-pyrazol-4-yl)benzyl)-N-(1-methyl-1H-pyrazol-4-yl)-1H-pyrazolo[3,4-d]pyrimidin-6-amine] | < 100 nM
20 | Cn1cc(Nc2ncc3cnn(Cc4cc(-c5cnn(C)c5)cc(F)c4F)c3n2)cn1 [Example 126, 1-(2,3-difluoro-5-(1-methyl-1H-pyrazol-4-yl)benzyl)-N-(1-methyl-1H-pyrazol-4-yl)-1H-pyrazolo[3,4-d]pyrimidin-6-amine] | < 100 nM
21 | Cn1cc(-c2cc(F)c(F)c(Cn3ncc4cnc(Nc5cnn(CCO)c5)nc43)c2)cn1 [Example 127, 2-(4-((1-(2,3-difluoro-5-(1-methyl-1H-pyrazol-4-yl)benzyl)-1H-pyrazolo[3,4-d]pyrimidin-6-yl)amino)-1H-pyrazol-1-yl)ethanol] | < 100 nM
